Test results from US12139520B2 (priority 2020, dated 2024).
Numbered stars: 1 amine (or outer) side, 2 acyl side, 3 side chain; on linkers, the order of the positions; unused ones are H or OH. Bridge positions count the residues as written; N and C are the ends. Square brackets hold non-standard residues; d marks the D form. Side chains are listed from the residue outwards. Peptide text beside a SMILES is read from it. * marks the point of attachment. C20 diacid = O=C(O)CCCCCCCCCCCCCCCCCCC(=O)*; γGlu = O=C(O)[C@H](CCC(=O)[*:2])N[*:1]; Hyp = O=C(O)[C@@H]1C[C@@H](O)CN1; AEEA = NCCOCCOCC(=O)O

Key:
[1] = target: T1, hAMY3 receptor (Homo sapiens, UniProt O60896+P30988); assay: cAMP assay for in vitro receptor activation, hAMY3-R; format: cell-based; settings: cAMP assay, hAMY3 receptor; read-out: hAMY3R EC50
T1 sequence (P30988 25-474): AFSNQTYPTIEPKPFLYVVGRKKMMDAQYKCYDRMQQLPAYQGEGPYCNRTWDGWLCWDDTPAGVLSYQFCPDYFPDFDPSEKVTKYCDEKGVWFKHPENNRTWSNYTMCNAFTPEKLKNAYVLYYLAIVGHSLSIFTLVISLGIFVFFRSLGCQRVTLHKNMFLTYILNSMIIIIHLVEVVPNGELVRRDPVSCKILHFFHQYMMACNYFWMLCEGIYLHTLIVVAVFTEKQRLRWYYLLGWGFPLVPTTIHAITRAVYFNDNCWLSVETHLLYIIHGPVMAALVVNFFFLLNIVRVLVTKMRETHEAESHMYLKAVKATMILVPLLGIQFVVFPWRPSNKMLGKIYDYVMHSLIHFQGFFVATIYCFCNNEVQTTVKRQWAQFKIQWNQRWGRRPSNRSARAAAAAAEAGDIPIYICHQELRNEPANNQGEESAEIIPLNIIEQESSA
T1 sequence (O60896 24-148 partner): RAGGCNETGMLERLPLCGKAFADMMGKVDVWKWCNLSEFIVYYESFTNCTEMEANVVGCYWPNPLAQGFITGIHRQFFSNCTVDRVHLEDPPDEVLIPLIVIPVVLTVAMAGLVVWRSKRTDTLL
How it was run: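 Stable hAMY3 cells; DPBS + 0.05% casein + 0.5 mM IBMX; graded compound doses, 30 min, RT; cAMP via HTRF Gs kit, TR-FRET read at 1 h.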

[2] = target: hAM1 receptor (Homo sapiens, UniProt O60895+Q16602); assay: cAMP assay for in vitro receptor activation, hAM1-R; format: cell-based; settings: cAMP assay, hAM1 receptor; read-out: hAM1R EC50
hAM1 receptor, sequence (Q16602 23-461): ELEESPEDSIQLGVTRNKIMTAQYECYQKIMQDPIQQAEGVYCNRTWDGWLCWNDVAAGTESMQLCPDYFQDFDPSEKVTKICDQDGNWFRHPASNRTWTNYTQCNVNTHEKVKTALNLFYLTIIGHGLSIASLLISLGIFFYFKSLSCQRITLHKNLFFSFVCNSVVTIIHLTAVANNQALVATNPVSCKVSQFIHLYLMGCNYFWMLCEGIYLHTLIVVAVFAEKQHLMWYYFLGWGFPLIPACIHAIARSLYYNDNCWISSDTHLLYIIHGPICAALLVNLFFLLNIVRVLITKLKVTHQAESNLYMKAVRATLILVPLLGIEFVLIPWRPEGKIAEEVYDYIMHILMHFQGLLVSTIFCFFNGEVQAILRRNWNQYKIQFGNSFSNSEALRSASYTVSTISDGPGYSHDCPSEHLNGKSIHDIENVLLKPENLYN
hAM1 receptor, sequence (O60895 43-175 partner): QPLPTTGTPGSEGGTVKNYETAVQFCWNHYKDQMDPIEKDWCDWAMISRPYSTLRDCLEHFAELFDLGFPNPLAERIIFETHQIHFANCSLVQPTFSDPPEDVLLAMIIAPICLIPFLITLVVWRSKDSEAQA
How it was run: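 Monoclonal stable hAM1-overexpressing cells, thawed from frozen stock; 8000 cells/well in DPBS + 0.05% casein + 0.5 mM IBMX; read-out cAMP.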

[3] = Acute food intake study in lean rats; format: in vivo, rat; settings: single SC injection, lean healthy rats; for Average cumulative food intake: up to 48 h, P < 0.001 vs vehicle
Method: General Protocols for Acute Food Intake Study
The effect on cumulative food intake was measured in male Sprague Dawley rats (6 weeks of age, Taconic, Denmark) following a single dose using a fully automated food intake monitoring system (HM-2; MBRose ApS, Faaborg, Denmark), allowing for advanced synchronous real-time monitoring of food intake behaviour of individual animals. The animals were housed in groups of 4 in a light-, temperature-, and humidity-controlled room (a 12/12 LD cycle, lights on at 02:00 AM; 22±2° C.; 50% relative humidity). The mice had ad libitum access to regular chow diet (Altromin 1324, Brogaarden A/S, Lynge, Denmark) and domestic quality tap water. Mice arrived at day 7, and a minimum of 5 days of habituation to the system was allowed prior to beginning of the study. During these days, the animals were handled daily to accustom them to the experimental paradigm. On the day of dosing, the animals were randomized into groups according to body weight. Animals were fasted for four hours prior to dosing. Animals were dosed SC 30 or 180 min prior to lights out, and food intake data were collected automatically for a total of 48 h post-dosing with automatic food recordings every 5 min.

EC50 [1] [nM]	EC50 [2] [nM]	SMILES	cumulative food intake, % to vehicle ([3]; 10 nmol/kg) [%]	Average cumulative food intake ([3]; 10 nmol/kg) [g]	cumulative food intake, % to vehicle ([3]; 30 nmol/kg) [%]	Average cumulative food intake ([3]; 30 nmol/kg) [g]
0.006	> 5000	CC[C@H](C)[C@H](NC(=O)[C@H](CCC(N)=O)NC(=O)[C@H](Cc1c[nH]cn1)NC(=O)[C@H](C)NC(=O)[C@H](CC(C)C)NC(=O)[C@H](CCCNC(=N)N)NC(=O)[C@H](CC(=O)O)NC(=O)[C@@H](NC(=O)[C@@H](NC(=O)[C@@H]1CSSC[C@H](NC(=O)[C@H](CCCCN)NC(=O)CC[C@H](NC(=O)CCCCCCCCCCCCCCCCCCC(=O)O)C(=O)O)C(=O)N[C@@H](CC(N)=O)C(=O)N[C@@H]([C@@H](C)O)C(=O)N[C@@H](C)C(=O)N[C@@H]([C@@H](C)O)C(=O)N1)[C@@H](C)O)C(C)C)C(=O)N[C@@H](Cc1ccc(O)cc1)C(=O)N[C@@H](CCC(N)=O)C(=O)N[C@@H](Cc1ccccc1)C(=O)N[C@H](C(=O)N[C@@H](CC(=O)O)C(=O)N[C@@H](CCCCN)C(=O)N[C@@H](CC(=O)O)C(=O)N[C@@H](CCCCN)C(=O)N[C@@H](CC(=O)O)C(=O)N[C@@H](CC(N)=O)C(=O)N[C@H](C(=O)N[C@@H](C)C(=O)N1CCC[C@H]1C(=O)N1CCC[C@H]1C(=O)N[C@H](C(=O)N[C@@H](CC(N)=O)C(=O)N[C@H](C(=O)NCC(=O)N[C@@H](CO)C(=O)N[C@@H](CC(N)=O)C(=O)NCC(=O)N1C[C@H](O)C[C@H]1C(N)=O)C(C)C)[C@@H](C)O)C(C)C)[C@@H](C)O [compound 4] ({C20 diacid-γGlu}-KCNTATCTVDRLAHQIYQFTDKDKDNVAPPTNVGSNG[Hyp]-NH2; disulfide 2-7)	59.23	26.3	30.86	13.7
0.009	> 5000	CC[C@H](C)[C@H](NC(=O)[C@H](CCC(N)=O)NC(=O)[C@H](CCC(=O)O)NC(=O)[C@H](C)NC(=O)[C@H](CC(C)C)NC(=O)[C@H](CCCNC(=N)N)NC(=O)[C@H](CCC(N)=O)NC(=O)[C@@H](NC(=O)[C@@H](NC(=O)[C@@H]1CSSC[C@H](NC(=O)[C@@H](N)CCCCN)C(=O)N[C@@H](CCCCNC(=O)COCCOCCNC(=O)COCCOCCNC(=O)CC[C@H](NC(=O)CCCCCCCCCCCCCCCCCCC(=O)O)C(=O)O)C(=O)N[C@@H]([C@@H](C)O)C(=O)N[C@@H](C)C(=O)N[C@@H]([C@@H](C)O)C(=O)N1)[C@@H](C)O)C(C)C)C(=O)N[C@@H](Cc1ccc(O)cc1)C(=O)N[C@@H](CCC(N)=O)C(=O)N[C@@H](Cc1ccccc1)C(=O)N[C@H](C(=O)N[C@@H](CC(=O)O)C(=O)N[C@@H](CCCCN)C(=O)N[C@@H](CC(=O)O)C(=O)N[C@@H](CCCCN)C(=O)N[C@@H](CC(=O)O)C(=O)N[C@@H](CC(N)=O)C(=O)N[C@H](C(=O)N[C@@H](C)C(=O)N1CCC[C@H]1C(=O)N1CCC[C@H]1C(=O)N[C@H](C(=O)N[C@@H](CC(N)=O)C(=O)N[C@H](C(=O)NCC(=O)N[C@@H](CO)C(=O)N[C@@H](CC(N)=O)C(=O)NCC(=O)N1C[C@H](O)C[C@H]1C(N)=O)C(C)C)[C@@H](C)O)C(C)C)[C@@H](C)O [compound 36] (H-KCK([AEEA-AEEA-γGlu-C20 diacid])TATCTVQRLAEQIYQFTDKDKDNVAPPTNVGSNG[Hyp]-NH2; disulfide 2-7; N-terminus assumed)	55.61	23.3		
0.012	> 5000	CC[C@H](C)[C@H](NC(=O)[C@H](CCC(N)=O)NC(=O)[C@H](Cc1c[nH]cn1)NC(=O)[C@H](C)NC(=O)[C@H](CC(C)C)NC(=O)[C@H](CCCNC(=N)N)NC(=O)[C@H](CCC(N)=O)NC(=O)[C@@H](NC(=O)[C@@H](NC(=O)[C@@H]1CSSC[C@H](NC(=O)[C@H](CCCCN)NC(=O)CC[C@H](NC(=O)CCCCCCCCCCCCCCCCCCC(=O)O)C(=O)O)C(=O)N[C@@H](CC(N)=O)C(=O)N[C@@H]([C@@H](C)O)C(=O)N[C@@H](C)C(=O)N[C@@H]([C@@H](C)O)C(=O)N1)[C@@H](C)O)C(C)C)C(=O)N[C@@H](Cc1ccc(O)cc1)C(=O)N[C@@H](CCC(N)=O)C(=O)N[C@@H](Cc1ccccc1)C(=O)N[C@H](C(=O)N[C@@H](CC(=O)O)C(=O)N[C@@H](CCCCN)C(=O)N[C@@H](CC(=O)O)C(=O)N[C@@H](CCCCN)C(=O)N[C@@H](CC(=O)O)C(=O)N[C@@H](CC(N)=O)C(=O)N[C@H](C(=O)N[C@@H](C)C(=O)N1CCC[C@H]1C(=O)N1CCC[C@H]1C(=O)N[C@H](C(=O)N[C@@H](CCCCN)C(=O)N[C@H](C(=O)NCC(=O)N[C@@H](CO)C(=O)N[C@@H](CC(N)=O)C(=O)NCC(=O)N1C[C@H](O)C[C@H]1C(N)=O)C(C)C)[C@@H](C)O)C(C)C)[C@@H](C)O [compound 60] ({C20 diacid-γGlu}-KCNTATCTVQRLAHQIYQFTDKDKDNVAPPTKVGSNG[Hyp]-NH2; disulfide 2-7)	69.59	30.9	45.72	20.3
